According to patent US6436941B1, “5,6-dihydro-napth[1,2-d]-imidazole, napth[1,2-d]imidazole, and chromane[3,4-d]imidazole derivatives” (Neurogen Corporation, priority 1995, dated 2002):
Structures can show the parent of a compound that is named as a salt. Where two headings read alike, the source gives them in different places.

Key:
D2 receptors = target: T1, D2 receptors (Chlorocebus aethiops, UniProt P52702); experiment: D2 receptor binding assay (3H-YM 09151-2 displacement); parameters: species or system African Green monkey; conditions: COS cells with recombinant D2 receptor; 0.5 nM 3H-YM 09151-2
T1 construct: expressed in transfected cells; host or cells: COS cells
T1 sequence (P52702 whole entry): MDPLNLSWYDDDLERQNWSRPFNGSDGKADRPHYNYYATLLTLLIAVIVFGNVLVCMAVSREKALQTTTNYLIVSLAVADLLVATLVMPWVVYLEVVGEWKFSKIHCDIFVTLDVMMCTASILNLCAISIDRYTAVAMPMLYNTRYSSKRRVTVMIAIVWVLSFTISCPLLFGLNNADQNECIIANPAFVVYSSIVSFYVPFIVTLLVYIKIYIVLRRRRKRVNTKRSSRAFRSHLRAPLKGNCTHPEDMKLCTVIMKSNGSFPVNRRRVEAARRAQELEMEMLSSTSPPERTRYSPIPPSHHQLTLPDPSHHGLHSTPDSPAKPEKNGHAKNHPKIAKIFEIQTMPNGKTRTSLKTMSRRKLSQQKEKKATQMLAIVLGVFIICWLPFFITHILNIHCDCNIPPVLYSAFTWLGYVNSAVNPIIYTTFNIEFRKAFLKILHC
Protocol: (§1) Assay for D2 and D3 receptor binding activity
(§2) Pellets of COS cells containing recombinantly produced D2 or D3 receptors from African Green monkey were used for the assays. The sample is homogenized in 100 volumes (w/vol) of 0.05 M Tris HCl buffer at 4° C. and pH 7.4. The sample is then centrifuged at 30,000×g and resuspended and rehomogenized. The sample is then centrifuged as described and the final tissue sample is frozen until use. The tissue is resuspended 1:20 (wt/vol) in 0.05 M Tris HCl buffer containing 100 mM NaCl.
(§3) Incubations are carried out at 48° C. and contain 0.4 ml of tissue sample, 0.5 nM ^3H-YM 09151-2 and the compound of interest in a total incubation of 1.0 ml. Nonspecific binding is defined as that binding found in the presence of 1 μM spiperone; without further additions, nonspecific binding is less than 20% of total binding.

D3 receptors = target: T2, D3 receptors (Chlorocebus aethiops, UniProt P52703); experiment: D3 receptor binding assay (3H-YM 09151-2 displacement); parameters: species or system African Green monkey; conditions: COS cells with recombinant D3 receptor; 0.5 nM 3H-YM 09151-2
T2 construct: expressed in transfected cells; host or cells: COS cells
T2 sequence (P52703 whole entry): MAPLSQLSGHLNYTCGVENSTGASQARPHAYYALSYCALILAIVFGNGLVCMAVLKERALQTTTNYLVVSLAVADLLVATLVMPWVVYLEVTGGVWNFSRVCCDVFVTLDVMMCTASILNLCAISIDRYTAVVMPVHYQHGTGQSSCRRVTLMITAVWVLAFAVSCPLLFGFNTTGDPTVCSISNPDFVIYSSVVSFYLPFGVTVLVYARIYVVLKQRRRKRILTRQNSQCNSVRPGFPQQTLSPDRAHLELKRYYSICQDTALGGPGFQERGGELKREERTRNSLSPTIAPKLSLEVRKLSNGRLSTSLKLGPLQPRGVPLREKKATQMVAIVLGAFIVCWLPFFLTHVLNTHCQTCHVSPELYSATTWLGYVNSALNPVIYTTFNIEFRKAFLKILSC
Protocol: as §1, §2, §3

[1] = target: T3, human dopamine D4 receptor subtype (Homo sapiens, UniProt P21917); experiment: D4 receptor binding assay ([3H]YM-09151-2 displacement)
T3 construct: expressed in transfected cells
T3 sequence (P21917 1-419): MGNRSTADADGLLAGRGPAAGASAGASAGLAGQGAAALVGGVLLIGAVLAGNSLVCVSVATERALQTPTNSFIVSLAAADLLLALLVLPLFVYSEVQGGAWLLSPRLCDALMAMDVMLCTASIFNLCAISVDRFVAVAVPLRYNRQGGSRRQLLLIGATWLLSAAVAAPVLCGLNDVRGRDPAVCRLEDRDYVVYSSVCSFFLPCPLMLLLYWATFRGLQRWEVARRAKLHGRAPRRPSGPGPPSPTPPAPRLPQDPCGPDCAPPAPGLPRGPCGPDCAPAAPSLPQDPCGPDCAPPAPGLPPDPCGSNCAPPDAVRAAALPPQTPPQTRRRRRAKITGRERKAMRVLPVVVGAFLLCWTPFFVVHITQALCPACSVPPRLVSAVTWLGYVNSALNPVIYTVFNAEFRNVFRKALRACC
Protocol: Assay for D4 receptor binding activity
Clonal cell lines expressing the human dopamine D4 receptor subtype were harvested in PBS and the cells centrifuged and the pellets stored at −80° C. until used in the binding assay. The pellets were resuspended and the cells lysed at 4° C. in 50 mM Tris pH 7.4 buffer containing 120 mM NaCl, 1 mM EDTA and 5 mM MgCl2. The homogenate is centrifuged at 48000×g for 10 minutes at 4° C. The resulting pellet is resuspended in fresh buffer and centrifuged again. After resuspension of the pellet in fresh buffer a […] aliquot is removed for protein determination. […] Incubations were carried out for 60 minutes at 25° C. in the presence of 0.1 nM [^3H] […] The incubation was terminated by rapid filtration through Whatman GF/C filters and rinsed with 2×4 ml washes of chilled 50 mM Tris (pH 7.4) and 120 mM NaCl. Non-specific binding was determined with 1 μM spiperone and radioactivity determined by counting in an LKB beta counter. Binding parameters were determined by non-linear least squares regression analysis, from which the inhibition constant Ki could be calculated for each test compound.

[2] = clonal cell lines expressing human D4, 0.1 nM [3H]YM-09151-2, 60 minutes at 25° C., read-out: Ki

Structure (SMILES) | melting point | Ki (D2 receptors) [nM] | Ki (D3 receptors) [nM] | Ki [1, 2] [nM] | Ki [1] [nM]
CN(Cc1ccccc1)Cc1nc2c([nH]1)-c1ccccc1CC2 (as salt: hydrochloride) [Compound 2, 1H-{2-(N-benzyl-N-methyl)aminomethyl}-(5,6-dihydro)-naphth[1,2-d]imidazole dihydrochloride] | 225 to 227 °C |  |  |  | 
CN(Cc1ccccc1)Cc1nc2c([nH]1)-c1ccccc1OC2 [Compound 3, 1H-{2-(N-benzyl-N-methyl)aminomethyl}chromano[3,4-d]imidazole dihydrochloride] |  | 220 | 440 | 145 | 
c1cnc(N2CCN(Cc3nc4c([nH]3)-c3ccccc3CC4)CC2)nc1 [Compound 1, 1H-2-(1-(4-(2-pyrimidyl)piperazinyl))methyl-(5,6-dihydro)-naphth[1,2-d]imidazole dihydrochloride] |  | 4200 | 7800 | 12 | 

Further lines, results first:

melting point | Ki (D2 receptors) [nM] | Ki (D3 receptors) [nM] | Ki [1, 2] [nM] | Ki [1] [nM] | Structure (SMILES)
198 to 201 °C (dec.) |  |  |  |  | CN(Cc1ccccc1)Cc1nc2c([nH]1)-c1ccccc1OC2 (as salt: hydrochloride) [Compound 3, 1H-{2-(N-benzyl-N-methyl)aminomethyl}chromano[3,4-d]imidazole dihydrochloride]
 | 350 | 210 |  | 81 | CN(Cc1ccccc1)Cc1nc2c([nH]1)-c1ccccc1CC2 [Compound 2, 1H-{2-(N-benzyl-N-methyl)aminomethyl}-(5,6-dihydro)-naphth[1,2-d]imidazole dihydrochloride]
212 to 214 °C |  |  |  |  | c1cnc(N2CCN(Cc3nc4c([nH]3)-c3ccccc3CC4)CC2)nc1 (as salt: hydrochloride) [Compound 1, 1H-2-(1-(4-(2-pyrimidyl)piperazinyl))methyl-(5,6-dihydro)-naphth[1,2-d]imidazole dihydrochloride]
